“And” between values parts separate entries of the source, which are not always exact repeats. Equal entries are not always repeated.
Columns and labels:
Type in all cases: cell-based, human
[1] = system: NZM11 (BRAF V600E) melanoma cells; experiment: Time course of uptake by FACS (Example 5); conditions: 200 nM
Protocol: FIG. 5A: Time course of uptake for 124, 125, 131, 132 conjugate compounds. Tests were performed using 200 nM each conjugate and 5, 30, or 60 minute incubation with melanoma cell line NZM11 (BRAF V600E mutant metastatic melanoma). Mean fluorescent intensities (MFI), n=300 mean±SD. The cells were sorted by FACS.
FIG. 5B: Time course of uptake for 124 and 3-azido BODIPY FL. Tests were performed using 200 nM each compound and 1 or 3 hour incubation with melanoma cell line NZM11 (BRAF V600E mutant metastatic melanoma). Mean fluorescent intensities (MFI). n=2000-3000 mean±SD. The cells were sorted by FACS.
Materials and methods: NZM11 cells were suspended at […] dispensed into 96 well plates and left to settle for 48 hours. 10 μL of 10 mM stock solutions in DMSO from the conjugates coupled to BODIPY were diluted with HBSS to afford 400 nM solution. Then, 400 nM compounds and DMSO solutions were diluted 1:1 with MEMα media to afford 200 nM solutions. After 48 hours the media was removed from the 96 well plates and 200 μL of 200 nM conjugates solutions dispensed to each well (in duplicate) and incubated for 5 minutes, 30 minutes and 60 minutes at 37 °C (for the first test) or 60 minutes and 3 hours (for the second test). After indicated incubation time, the media was removed and cells washed with PBS. 100 μL of TrypLE trypsin (ThermoFisher Scientific) were added to each well and incubated for 6.5 minutes at 37 °C after which, 100 μL of MEMα media were added and samples were sorted through FACS biosort. FACS results output represented the mean of the fluorescence intensities (in arbitrary units) measured for cells sorted in every sample. Uptake rate was calculated by the equation: Uptake rate=(MFI2−MFI1)/(T2−T1)
whereby: MFI=mean fluorescent intensities; T=time (at which time the sample was taken); Uptake rate units: fluorescence intensities units per minute.

Jurkat cells = experiment: FACS uptake of BODIPY FL conjugates in Jurkat cells (Example 3); conditions: 200 nM
Protocol: FIG. 3B: Conjugate compounds coupled to BODIPY FL were tested for uptake using 200 nM each conjugate and 5 minute incubation with immortalized T lymphocyte cell line, Jurkat cells. Mean fluorescent intensities (MFI). 1,000 cells sorted by FACS. Bars represent mean±SD. Results represent a single experiment done in duplicate.
Materials and methods: Jurkat cells have been previously shown to be defective in the expression of two lipid phosphatases, PTEN (phosphatase and tensin homologue) and SHIP (SH2-domain-containing inositol polyphosphate 5′ phosphatase). The biological implications of SHIP deficiency in T cells remain under evaluation, but the loss of PTEN leads to activation of the phosphatidylinositol 3-kinase (PI3K)-signalling pathway. See Abraham and Weiss, 2004. This activation of PI3K protein is also on NZM40 melanoma cell line, and represents a key mutation for its sustained proliferation. See Silva et al., 2017. For these experiments, Jurkat cells were diluted on RPMI media (supplemented with 10% FBS+1% penicillin-streptomycin) to afford 400 cells/μL. 2 μL of 100 μM stock solutions in DMSO from 138 and pantothenic acid/pantothenic acid derivatives coupled to BODIPY were diluted with 998 μL of RPMI media (supplemented with 10% FBS+1% penicillin-streptomycin) to afford 200 nM solution. 100,000 cells were dispensed to Eppendorf tubes, centrifuged for 1.5 min at 5000 rcf and the supernatant was removed. The cells then were incubated with 500 μL of solutions at 200 nM for 4.5 min and 37 °C. After the incubation time, cells were centrifuged for 1.5 minutes at 5000 rcf. Supernatant was removed and cell pellet re-suspended in 200 μL fresh RPMI media, transferred to 96 well-plate and run on FACS machine, approximately 1,000 cells analysed.

[2] = system: HT29 (colorectal cancer cell line); experiment: FACS uptake of BODIPY FL conjugates (Example 4); conditions: 200 nM, 5 min
Protocol: FIG. 4A: Conjugate compounds coupled to BODIPY FL were tested for uptake using 200 nM each conjugate and 5 minute incubation with colorectal cancer cell line HT29. Mean fluorescent intensities (MFI). 1,000 cells were sorted by FACS.
Materials and methods: The HT-29 line was originally isolated from a primary tumour in 1964 from a person. This cell line is positive for expression of N-ras and overexpression of p53 antigen. The human colon adenocarcinoma cell line HT29, is not only used to study the biology of human colon cancers, but it is receiving special interest in studies focused on food digestion and bioavailability due to the ability to express characteristics of mature intestinal cells. The application of this cell line to transport studies of drugs and food compounds is illustrated, especially when the effect of the mucus layer is considered or used as co-culture in combination with Caco-2 cells. These cells have shown a high rate of glucose consumption and therefore, they require high glucose concentration in the medium. Verhoeck et al., 2015.
For these experiments, HT-29 or MEF cells were diluted on αMEM media (supplemented with 10% FBS+1% penicillin-streptomycin) to give a 250 cells/μL suspension of which 200 μL were aliquoted into each well of a 96 well plate followed by incubation for 24 hours. Next, 2 μL of 100 μM stock solutions in DMSO from the conjugates coupled to BODIPY were diluted with 998 μL of αMEM media to give a 200 nM solution. After 24 hour incubation, media was removed and 200 μL of 138 and pantothenic acid/pantothenic acid derivatives coupled to BODIPY 200 nM solutions were added and cells were incubated for 5 minutes at 37 °C. After 5 minutes, the compounds and DMSO solutions were removed and cells were washed with PBS. Then, 100 μL of TrypLE trypsin were added to each well and incubated for 5 minutes at 37 °C. After this time, 100 μL of DMEM media were added to the wells and samples were sorted through FACS biosort. The studies were completed in duplicated wells.

[3] = system: NZM40 (NRAS Q16H) melanoma cells; experiment: FACS uptake of BODIPY FL conjugates, 200 nM, 5 min (Example 2)
Protocol: FIG. 2. Conjugate compounds coupled to BODIPY FL were tested for uptake using 200 nM each conjugate and 5 minute incubation with melanoma cell line NZM11 (BRAF V600E mutant metastatic melanoma), melanoma cell line NZM40 (NRAS Q16H mutant metastatic melanoma) and melanoma cell line NZM9 (BRAF and NRAS wildtype metastatic melanoma). Mean fluorescent intensities (MFI). 2,000 cells (NZM11), 1,000 cells (NZM40) and 500-1,000 cells (NZM9). Cells were sorted by FACS. Bars represent mean±SD. Results were from a single experiment done in triplicate.
NZM40 is an adherent cell line which was originally derived from a metastatic melanoma from a patient, in 2004. This human metastatic melanoma is identified with code CBA-1381 from Cell bank Australia. […] Ras is a superfamily of proteins implicated in cell growth, survival and differentiation. NRAS (neuroblastoma rat sarcoma) was the first oncogene recognized in melanoma and mutations in NRAS account for 20% of all melanomas. NRAS mutations primarily occur at position 61 and involve amino acid change from glutamine (Q) to arginine (R), lysine (K), leucine (L) or histidine (H). These mutations block NRAS into a GTP-bound state damaging its GTPase activity (FIG. 1). Patients are usually older (>55 years) with previous UV exposure. See Garcia-Alverez et al., 2021.
For screening, NZM11, NZM40 and NZM9 cells were suspended at […] dispensed into 96 well plates and left to settle for 48 hours. Then, 10 μL of 10 mM stock solutions in DMSO for the conjugates were diluted with HBSS to afford 400 nM solution. Next, 400 nM compounds and DMSO solutions were diluted 1:1 with MEMα media to afford 200 nM solutions. After 48 hours the media was removed from the 96 well plates and 200 μL of 200 nM conjugates solutions dispensed to each well (in triplicate) and incubated for 5 minutes at 37 °C. After 5 minutes, the media was removed and cells washed with PBS. Then, 100 μL of TrypLE trypsin (ThermoFisher Scientific) were added to each well and incubated for 5 minutes at 37 °C after which, 100 μL of MEMα media were added and samples were sorted through FACS biosort. The FACS results output were represented as the mean of the fluorescence intensities (in arbitrary units) measured for cells sorted in every sample.

[4] = system: NZM11 (BRAF V600E mutant metastatic melanoma) cells; experiment: Sulforhodamine B (SRB) assay of viability / proliferation, auranofin conjugates (Example 8)
Protocol: FIG. 8: Effect of 136 and 137 (auranofin conjugates) on viability of NZM11 melanoma cells. Cells were incubated with 136 and 137 at 10 μM final concentration and kept at 37 °C for 48 hours. Pantothenic acid (PA), CJ-15,801, and biotin were tested at 200 μM final concentration. […] Two batches of auranofin were tested at 10 μM final concentration.
FIG. 9: The viability data from FIG. 8 was normalised to the treatment plate and DMSO control and plotted as a percentage of cell growth. Individual data points represent technical replicates. Curve indicates non-linear regression slope, which allows determination of IC50 values.
Materials and methods: NZM11 cells were cultured in MEMα media with an initial count of 1020 cells/μL. The cells were then diluted to get 25 cells per μL and 200 μL of this suspension (5000 cells per well), dispensed into 96 well plates and left to settle for 24 hours. 10 mM stock solutions of 136, 137, and auranofin were diluted with 1% FBS MEMα media to give 10 nM, 30 nM, 100 nM, 300 nM, 1 μM, 3 μM, 10 μM, 30 μM and 100 μM solutions. After 24 hours the media was removed from the 96 well plates. To individual wells 200 μL of each dilution were dispensed in triplicate for three groups (136, 137, and auranofin): 1% FBS MEMα media only (DMSO control), 10 nM, 30 nM, 100 nM, 300 nM, 1 μM, 3 μM, 10 μM, 30 μM and 100 μM. The cells were incubated at 37 °C, 5% 02 and 5% CO2 for 48 hours.
In order to test the potency of 136 and 137, the IC50 values were calculated for these auranofin conjugates. For analysis of the treatment plate (Tz) a SRB assay was utilised. For this assay, 50 μL of 50% (w/v) ice-cold trichloroacetic acid (TCA) was added to each well. To achieve this, 5 g of TCA was made up to 10 mL with milliQ H2O. This was cooled on ice. Incubation was carried out for 1 hour at 4 °C to fix cells. TCA and media were removed from cells. Five milliQ washes were carried out and the plate was left to air dry. Next, 50 μL of 0.4% SRB solution (prepared in 1% acetic acid) was added to each well and incubated for 10 minutes at room temperature. The SRB solution was removed and five milliQ washes were carried out. Then, 100 μL of 10 mM Tris solution was added to each well, and the dye was solubilised. Absorbance at 515 nm was read on plate reader. Data was normalized to Tz plate, as per NCI60 screening method (https://dtp.cancer.gov/discovery_development/nci-60/methodology.htm).

## CC1=CC(C)=[N+]2C1=Cc1ccc(CCCN=[N+]=[N-])n1[B-]2(F)F [3-azido BODIPY FL, 3-Azido[4,4-difluoro-5,7-dimethyl-4-bora-3a,4a-diaza-s-indacene-3-yl]propane, reference compound]
[1]; 1 hour
  times lower intensities than 124: 6 times
[1]; 3 hours
  times lower intensities than 124: 6 times
[1]; NZM11, time course
  uptake / intensities, in words: low uptake rate

## CC1=CC(C)=[N+]2C1=Cc1ccc(CCCn3cc(CCNC(=O)/C=C\NC(=O)[C@@H]4OC(C)(C)OCC4(C)C)nn3)n1[B-]2(F)F [Compound 129, (Z)—N-((((3-[4,4-Difluoro-5,7-dimethyl-4-bora-3a,4a-diaza-s-indacene-3-yl]propyl)-1H-1,2,3-triazol-4-yl)ethylamino)-3-oxoprop-1-enyl)-2,2,5,5-tetramethyl-1,3-dioxane-4-carboxamide]
Jurkat cells
  uptake / targeting: showed targeting
[2]
  uptake (fluorescent intensities): higher uptakes than their diol counterparts
[3]
  uptake (fluorescence intensities): showed selectivity

## (R,E)-((4-(3-(2,4-dihydroxy-3,3-dimethylbutanamido)acrylamido)phenyl)thio)(triethyl-phosphaneyl) Gold (I) [Compound 137]
[4]; 10 μM, 48 hours
  reduction on viability, as compared to auranofin itself: more than 95%
[4]; 138 20 times more concentrated (200 μM)
  effect of CJ-15,801/138 on activity: not affected
[4]; NZM11, 48 hours
  IC50 relative to auranofin: five times higher than auranofin
[4]; NZM11, 48 hours, SRB assay
  IC50: 2940 nM and ~2800 nM
[4]; vitamins 20 times more concentrated (200 μM)
  effect of biotin and pantothenic acid on activity: not affected

## CC1=CC(C)=[N+]2C1=Cc1ccc(CCCn3cc(CCNC(=O)/C=C\NC(=O)[C@@H](O)C(C)(C)CO)nn3)n1[B-]2(F)F [Compound 130, (Z)—N-((((3-[4,4-Difluoro-5,7-dimethyl-4-bora-3a,4a-diaza-s-indacene-3-yl]propyl)-1H-1,2,3-triazol-4-yl)ethylamino)-3-oxoprop-1-enyl)-2,4-dihydroxy-3,3-dimethylbutanamide]
[3]
  uptake (fluorescence intensities): showed selectivity

From patent publication US20260364186A1, “Chemical Conjugates, Compositions, and Methods of Preparation and Use Thereof” (Transfection Holdings Limited, priority 2022, published 2026)
